According to patent US11903386B2, “Strigolactone analogs and their usage in plant control” (King Abdullah University of Science and Technology, priority 2016, dated 2024):
Entries after “also recorded” stand apart in the source; their conditions may differ.

What was measured:
P. ramosa seeds = assay: P. ramosa seed germination bioassay; type: in vivo; conditions: 1.0 μM
Protocol: Parasitic weed seeds (S. hermonthica and P. ramosa) germination activity was recorded as described previously (Jamil et al., 2012). Six pre-conditioned seed discs were placed in a 90 mm petri-dish containing a filter paper ring wetted with 0.9 ml sterile MilliQ water. […] GR24 solutions with equal concentrations and sterile MilliQ water were included as a positive and negative control, respectively. After application, seeds were incubated at 30° C./25° C. in the dark for two days. Germination (seeds with radical emerging through seed coat) was scored under a binocular microscope, and germination rate (%) was calculated.

OsD14 = target: T1, OsD14 (Oryza sativa subsp. japonica, UniProt Q10QA5); assay: In vitro hydrolysis assay with OsD14 (HPLC); type: biochemical, rice; conditions: 10 μM substrate, 37° C.
T1 construct: made in house; host or cells: E. coli BL21 (DE3)
T1 sequence (Q10QA5 1-318): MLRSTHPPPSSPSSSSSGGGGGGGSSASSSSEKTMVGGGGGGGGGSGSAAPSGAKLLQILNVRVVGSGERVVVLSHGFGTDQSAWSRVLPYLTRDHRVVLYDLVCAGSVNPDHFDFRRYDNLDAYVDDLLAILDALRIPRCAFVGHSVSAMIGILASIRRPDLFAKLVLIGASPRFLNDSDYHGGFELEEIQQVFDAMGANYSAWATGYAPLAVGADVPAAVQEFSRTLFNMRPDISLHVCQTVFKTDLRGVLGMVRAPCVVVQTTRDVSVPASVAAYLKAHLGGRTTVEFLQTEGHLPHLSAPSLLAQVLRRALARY
Text: Striga hermonthica ShHTL7 cDNA, GenBank accession KR013127 was kindly provided by Prof. Tadao Asami (The University of Tokyo, Japan). Arabidopsis thaliana D14 (AtD14) cDNA, GenBank accession AY097402 was synthesized and cloned into pUC57 (GenScript). ShHTL7 and OsD14 cDNAs were amplified by RT-PCR using the primers shown in Table 2, digested with BamHI and XhoI, and ligated into BamHI/XhoI digested pGEX-6P-1 expression vector (GE Healthcare). Integrity of plasmids was confirmed by sequencing (KAUST Bioscience Core Lab). The plasmids were then transformed into E. coli BL21 (DE3) cells. The cells were grown in LB broth containing ampicillin ([…]), incubated at 37° C. until OD600 of 0.6 and induced with 0.1 mM isopropyl-β-D-thiogalactopyranoside (IPTG) at 16° C. for 16 h. […]
The hydrolysis of GR24 and MPs by ShHTL7/OsD14 was performed in a total volume of 0.5 ml of PBS buffer containing 10 μM of substrate. […] Hydrolysis of substrates was monitored by HPLC analysis using an Zorbax Eclipse Plus C18 column (3.5 μm, 2.1×150 mm), eluted by a gradient from 10% to 90% acetonitrile in water within 15 min and keeping final condition for 4 min. […] Eluted compounds were detected using a Diode Array Detector. Amounts of remaining substrates were determined by calculating corresponding peaks, in comparison to that of internal standard.

[1] = tested on: rice seedlings (Shiokari, d3, d10); assay: Growth and fresh biomass of hydroponically grown rice seedlings; type: in vivo; conditions: 2.5 μM, twice a week for three weeks
Protocol: Rice seeds (WT, d3, d10) were surface-sterilized by washing with 70% ethanol for 1 min and then with 2.5% sodium hypochlorite for 15 min. Seeds were then rinsed thoroughly with sterile MilliQ water and incubated in water for 2 days at 30° C. in the dark. Pre-germinated seeds were transferred to filter papers containing ½ strength MS medium in 90 mm petri dishes and incubated at 30° C. under fluorescent white light (130-180 μM m^−2 s^−1) for one week. Seven day-old seedlings were transferred to 50 ml falcon tubes (one seedling per tube) containing modified half-strength Hoagland nutrient solution and grown in greenhouse. Plants were treated with MPs at 2.5 μM-2.5×10-7 μM, using GR24 as positive control. The compounds were applied six times, twice a week. Number of tillers per plant, plant height and fresh biomass were measured at final harvest.

Arabidopsis seedlings = assay: Arabidopsis hypocotyl elongation assay; type: in vivo; conditions: 1.0 μM
Protocol: Sterilized Arabidopsis seeds were sown on half strength MS (with 0.5% sucrose+1% agar, 0.5 g L-1 MES, pH 5.7) plates supplemented with MPs or GR24 (at 1.0 μM). Plates were stored at 4° C. in darkness for 3 days. To initiate germination, plates were exposed to continuous white light for 24 h then transferred to continuous monochromatic red light (160 Lux, 22° C.) conditions for another 4 days. For hypocotyl length measurement, at least 30 seedlings were measured using the publically available ImageJ software (http://rsbweb.nih.gov/ij/) after taking digital photographs. Monochromatic red light source was applied as described previously (Wu and Yang, 2010). Light flow rates were measured using a Li250 quantum photometer (Li-Cor, Lincoln, NE, USA).

SMILES | P. ramosa seed germination activity (P. ramosa seeds) | Hydrolysis rate by OsD14 (OsD14) | Growth, senescence symptoms and biomass of rice seedlings [1] | Inhibition of hypocotyl growth (Arabidopsis seedlings)
COC(=O)/C(=C/OC1C=C(C)C(=O)O1)c1ccc([N+](=O)[O-])cc1 (racemic) [MP1, (E)-methyl 3-(4-methyl-5-oxo-2,5-dihydrofuran-2-yloxy)-2-(4-nitrophenyl)acrylate] | much higher activity; also recorded: quite similar to that of GR24 | highest hydrolysis rate | – | –
COC(=O)/C(=C/OC1C=C(C)C(=O)O1)c1ccccc1 (racemic) [MP3, (E)-methyl 3-(4-methyl-5-oxo-2,5-dihydrofuran-2-yloxy)-2-phenylacrylate] | – | finally MP3 | stunted the growth and caused senescence symptoms; also recorded: growth retardation and senescence | –
COC(=O)/C(=C/OC1C=C(C)C(=O)O1)c1ccc(Cl)cc1 (centres unmarked) [MP7] | – | – | – | stronger inhibitory effect than GR24
